“Also recorded” adds a separate entry of the source.
Experiments:
[1] = test system: APC mutant (apc5 temperature sensitive mutant and/or apc10Δ mutant); experiment: Viability/growth of APC mutant yeast cells; format: cell-based
Method: (§1) A. apc5^CA cells expressing small peptides were assayed for replicative life span (RLS). B. Cells expressing HTZ1 were grown under stress conditions. HTZ1 expression, even at low levels, suppresses apc5^CA and apc10Δ defects. The cells shown were transformed with either an empty vector or GAL inducible HTZ1. On 2% glucose, the construct is weakly expressed, and this is enough to increase growth of APC mutants at 30° C.
Examples of yeast cells with defective anaphase promoting complex (APC) function include apc5 and apc10 mutants. An example of an apc5 mutant is the apc5 temperature sensitive mutant described herein. An example of an apc10 mutant is the apc10 deletion mutant described herein.
(§2) The reverse genetic screen utilized a yeast 2-hybrid (Y2H) protocol that selected for peptides that bound to the APC subunits Apc5 or Apc10 (see FIG. 5 for APC structure), to assess whether peptide-binding might modify APC function. Peptides that bound APC subunits were then assayed for those that suppressed APC mutant defects.
(§3) Over 100 peptides that bound either Apc5 or Apc10 were recovered from millions screened. Six peptides that reproducibly interacted with the Apc10 bait construct in Y2H assays were examined further. Vectors expressing these 6 peptides were transformed into APC mutant cells and assessed for ts growth.

Apc10 = molecular target: T1, Apc10 (Saccharomyces cerevisiae, UniProt P53068); experiment: Yeast 2-hybrid (Y2H) binding of peptide prey to Apc10 bait; conditions: galactose-inducible Trx-scaffold peptide prey
T1 construct: expressed in transfected cells; host or cells: yeast Y2H cells
T1 sequence (P53068 1-250): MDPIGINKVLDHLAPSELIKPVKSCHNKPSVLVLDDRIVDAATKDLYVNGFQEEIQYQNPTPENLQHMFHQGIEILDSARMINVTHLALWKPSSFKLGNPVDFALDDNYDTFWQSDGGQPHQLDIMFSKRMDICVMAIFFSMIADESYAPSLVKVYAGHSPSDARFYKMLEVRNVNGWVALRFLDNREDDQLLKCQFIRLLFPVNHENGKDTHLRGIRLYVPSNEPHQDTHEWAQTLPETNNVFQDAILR
Method: as §2
A library of random small peptides were cloned into a Thioredoxin (Trx) scaffold (see FIG. 6 for Trx-aptamer structure) and expressed from a galactose-inducible Y2H prey vector in cells expressing the Apc10 bait vector (the modified Apc10 is still part of the complete APC complex). Six peptides that reproducibly interacted with the Apc10 bait construct in Y2H assays were identified (FIG. 1A) and were examined further.
(§4) Random small peptides were cloned into the TrxA scaffold (library provided by R. Geyer, U of S) and expressed from a galactose-inducible Y2H prey vector in cells harboring either APC5 or APC10 Y2H bait vectors (APC5/APC10 bait constructs complement APC mutant defects).
as §3

yeast proteins = experiment: Yeast 2-hybrid assay for proteins interacting with the peptides; format: binding
Apc5 = molecular target: T2, Apc5 (Saccharomyces cerevisiae, UniProt Q08683); experiment: Yeast 2-hybrid (Y2H) binding of peptide prey to Apc5 bait; conditions: galactose-inducible Trx-scaffold peptide prey
T2 construct: expressed in transfected cells; host or cells: yeast Y2H cells
T2 sequence (Q08683 1-685): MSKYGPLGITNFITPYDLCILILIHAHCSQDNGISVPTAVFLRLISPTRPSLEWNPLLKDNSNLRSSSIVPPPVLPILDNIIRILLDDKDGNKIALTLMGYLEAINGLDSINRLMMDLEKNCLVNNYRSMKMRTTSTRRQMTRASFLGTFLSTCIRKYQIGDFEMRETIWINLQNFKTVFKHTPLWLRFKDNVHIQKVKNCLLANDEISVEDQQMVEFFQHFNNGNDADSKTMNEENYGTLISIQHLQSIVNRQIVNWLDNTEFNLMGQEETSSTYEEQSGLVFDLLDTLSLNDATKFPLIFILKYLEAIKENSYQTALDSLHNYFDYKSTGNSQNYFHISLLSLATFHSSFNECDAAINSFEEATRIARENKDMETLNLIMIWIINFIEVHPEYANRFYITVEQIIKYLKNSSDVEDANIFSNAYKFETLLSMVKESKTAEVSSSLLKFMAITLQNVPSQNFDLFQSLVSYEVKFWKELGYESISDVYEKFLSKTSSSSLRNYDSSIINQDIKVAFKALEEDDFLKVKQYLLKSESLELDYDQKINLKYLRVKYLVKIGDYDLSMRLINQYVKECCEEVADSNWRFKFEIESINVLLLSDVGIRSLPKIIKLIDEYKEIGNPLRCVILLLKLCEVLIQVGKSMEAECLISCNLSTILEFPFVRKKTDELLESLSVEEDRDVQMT
Method: as §2, §4, §3

apc10Δ cells = experiment: Spot dilution growth of apc10Δ cells expressing peptides; format: cell-based, yeast
Source text: A. Y2H cells expressing the APC subunit bait and the galactose inducible Apc10 peptide prey grown on glucose or galactose. Cells co-expressing the Apc5 or Apc10-bait and Apc10 aptamer-prey vectors were spotted onto the appropriate media, in the presence or absence of galactose (the aptamers are Gal inducible), to confirm 2-hybrid interactions. Growth on trp-his-media ensures both plasmids are maintained. A 2-hybrid interaction will drive expression of the ADE2 gene, allowing growth on ade-media. B. Aptamers that bind Apc10 can suppress APC mutant phenotypes. Spot dilutions of apc10Δ cells expressing an empty vector control or the one of 6 Apc10 aptamers tested. Log phase cells were 10-fold serially diluted and spotted onto plates containing either 2% glucose or 2% galactose. The plates were then incubated at 30° C. (permissive temperature) and 34° C. (restrictive stress). C. Peptides identified as binding to the yeast Apc10 APC subunit using the yeast 2-hybrid screen increase growth of cells on stress conditions. A series of APC binding peptides were transformed into wild type yeast cells, spot diluted, and grown at 30° C. on media supplemented with the normal carbon source (2% glucose). Alternatively, cells were grown on media supplemented with 2% galactose to induce a carbon stress. D. Peptides were expressed in apc5^ts temperature sensitive cells and grown on glucose or galactose media at 30° C.
The cells were exposed to 5 sec of UV from a UV box prior to incubation.
The six peptide expressing vectors were transformed into apc10Δ cells and assessed for temperature sensitive growth. Two of the peptides, C43-4 and C2-4B, suppressed the apc10Δ growth phenotype at 30 and 34° C. (FIG. 1B-D). […]
Over 100 peptides that bound either Apc5 or Apc10 were recovered from millions screened. […] Vectors expressing these 6 peptides were transformed into APC mutant cells and assessed for ts growth.
Methods • 1. […] The growth of the cells was determined by measuring the optical density (OD) of the cells at 600 nm (OD600) • 3. […]

[2] = test system: wild type (WT) yeast cells; experiment: Spot dilution growth and stress resistance of wild type yeast cells expressing peptides; format: cell-based
Method: (§5) A. apc5^CA (temperature sensitive allele) cells were transformed with C43-4, C2-4B or an empty vector. Cells grown overnight in 2% Glu were struck onto 2% Glucose plates and used for the yeast replicative lifespan (RLS) assay. B. Wild type (WT) cells transformed with C43-4, C2-4B or an empty vector were grown to stationary phase in 2% Glu media, then after 2 days spot diluted onto 2% Glu or 2% Gal to induce expression of the aptamers.
The cells were exposed to 5 sec of UV from a UV box prior to incubation. The plus signs define growth compared to the empty vector control.
(§6) The six peptide expressing vectors were transformed into apc10Δ cells and assessed for temperature sensitive growth. Two of the peptides, C43-4 and C2-4B, suppressed the apc10Δ growth phenotype at 30 and 34° C. (FIG. 1B-D). […] However, C43-4 and C2-4B increased replicative and chronological lifespan in both apc5^CA and WT cells, respectively (FIG. 2A). […] H2O2 induces oxidative stress whereas galactose induces a carbon stress.
These cells were spot diluted on Trp-plates and grown at the temperatures shown and/or exposed to ultraviolet (UV) irradiation (FIG. 11). At low level expression on glucose, some of the mutations caused stress dependent phenotypes.
Methods • 1. Cells were cultured overnight in Trp-2% glucose media • 2. The growth of the cells was determined by measuring the optical density (OD) of the cells at 600 nm (OD600) • 3. Cells were diluted to OD600 of 1 with fresh culture media • 4. 100 ul of each culture was pipetted into a well of a 96 well plate • 5. 10 ul of the each starting culture was pipetted into 90 ul of water in 4 additional wells to make a 10-fold serial spot dilution • 6. 5 ul from each serial dilution was spotted onto plates containing standard growth media with either 2% glucose or 2% galactose using a multi-pipettor • 7. The plates were exposed to UV • 8. The plates were then placed at room temperature, 30, 34 or 37° C. for 3-7 days • 9. The plates were scanned and saved as tiff files

[3] = test system: apc5^CA temperature sensitive mutant; experiment: Forward genetic screen: rescue of apc5^CA temperature sensitive growth; format: cell-based, yeast
Source text: Using a forward genetic screen to test whether temperature sensitive (ts) APC mutants expressing random small peptides could grow at restrictive temperatures, millions of small peptides were rapidly screened for those that could restore mutant APC phenotypes. Peptides that rescued the apc5^CA ts (temperature sensitive) defect were recovered including peptides Y65 and Y36.
In the forward screens, with galactose-inducible TrxA-based peptide libraries, in cells harboring the apc5^CA ts allele, over 200 peptides (from millions screened) suppressed the ts phenotype. Several recovered plasmids were sequenced.

APC = experiment: Yeast 2-hybrid binding to the APC
Source text: As used herein, the expression “binds to the APC” refers to a peptide that binds to at least one subunit of the APC, for example Apc5 or Apc10. Binding can be measured for example, by any method known in the art, including, but not limited to a yeast 2-hybrid assay.
as §2, §4

WT cells = experiment: Chronological lifespan of WT yeast cells; format: cell-based
Method: as §5, §6

apc5^CA cells = experiment: Yeast replicative lifespan (RLS) assay; format: cell-based
Method: as §5, §1

| Sequence | Viability of an APC mutant [1] | Binds Apc10 in a yeast 2 hybrid assay (Apc10) | Proteins identified as interacting in a yeast 2 hybrid assay (yeast proteins) | Binds Apc5 in a yeast 2 hybrid assay (Apc5) | further results |
| --- | --- | --- | --- | --- | --- |
| PSYNTIKYHETHGGRHPRRQPKRPI [3-1] | increases the viability | Binds Apc10 | Identified as interacting with Sld5,; also recorded: Hms2, Gnt1 and Vnx1 in a yeast | – | Binds Apc10 in a yeast 2 hybrid assay (Apc10; listed as SEQ ID NO. 5): binds Apc10 |
| SKWTWRMCMSWTVDRFAPVPWP [24-1] | increases the viability | – | – | Binds Apc5 | Binds Apc5 in a yeast 2 hybrid assay (Apc5; listed as SEQ ID NO: 7): binds Apc5 |
| NGSSHNDARVRRLTLISRLC (Artificial Sequene) [C43-4-3, Version of C43-4 where the leucine residue at position 8 is replaced with alanine] | – | binds Apc10 | – | – | Toxicity in apc10Δ cells (apc10Δ cells; glucose or galactose media, 5 sec UV (FIG. 13)): remained toxic; Resistance to UV stress compared to C43-4 cells ([2]; FIG. 11, UV treated, for example at room temperature): increased resistance to UV stress; Growth compared to C43-4 cells ([2]; FIG. 11, for example at room temperature): increased growth; Stress resistance at low level expression ([2]; WT cells on glucose, temperature and/or UV stress, versus empty vector): increased stress resistance further |
| SWLNGSGGVVLWLFSNFCCG [Y36] | – | – | – | – | apc5^CA temperature sensitive (ts) growth / viability of an apc5 temperature sensitive mutant [3]: increases the viability; also recorded: rescued; also recorded: Rescues apc5^CA temperature; Binding to the APC in a yeast 2HY assay (APC): not bind the APC in a yeast 2HY |
| RRCLSIRTENLAWEGKFLRV [50-1] | increases the viability | Binds Apc10 | Identified as interacting with Pxa1,; also recorded: Rrp12, and Hfm1 in a yeast 2- | – | Binds Apc10 in a yeast 2 hybrid assay (Apc10; listed as SEQ ID NO: 9): binds Apc10 |
| GRMLMTYLMYFMVLWVPRPWGPPL [1-8] | increases the viability | Binds Apc10 | – | – | Binds Apc10 in a yeast 2 hybrid assay (Apc10; listed as SEQ ID NO: 8): binds Apc10 |
| CECLETETFHPITRHLIVPV [9-5] | increases the viability | – | Interacts with Die2, Tim44, Yrm1 | Binds Apc5 | Binds Apc5 in a yeast 2 hybrid assay (Apc5; listed as SEQ ID NO. 3): binds Apc5 |
| RMPQWWQWMWV [C2-4B, Peptide aptamer with homology to yeast protein Sum1] | increases the viability | – | – | Binds Apc5 | Binds Apc5 in a yeast 2 hybrid assay (Apc5; listed as 02-4B): binds Apc5; Chronological lifespan (WT cells): increased; apc10Δ growth phenotype (apc10Δ cells; 30 and 34° C.): suppressed; Replicative lifespan (apc5^CA cells): increased; Log phase growth of wild type (WT) cells ([2]; 30° C.): Neither C43-4 nor C2-4B influenced; Stress resistance when overexpressed in WT yeast cells ([2]; overexpressed, H2O2 oxidative stress, galactose carbon stress): increased stress resistance |
| GALKEVCICIVESVGGEVFSGP [compound 4] | increases the viability | – | Identified as interacting with Hxt2,; also recorded: Mad2, Ubc7, Rpp2, Kap122, Sfa1,; also recorded: Oac1 and Vps13 in a yeast 2- | Binds Apc5 | Binds Apc5 in a yeast 2 hybrid assay (Apc5; listed as SEQ ID NO. 6): binds Apc5 |

— patent US11819021B2, “Peptides and methods and uses thereof for modulating anaphase promoting complex (APC) activity” (University of Saskatchewan, priority 2017, dated 2023)
